Measurements reported in patent US20230035127A1, “CULTURE AND DIFFERENTIATION OF PLURIPOTENT STEM CELLS” (University of Maryland, College Park, priority 2021, published 2023).
Where “and” joins values, the source holds several entries; their conditions need not be identical. Identical values can stand only once. Entries after “also recorded” stand apart in the source; their conditions may differ.

How the values were obtained:
Assay type in all cases: cell-based
human eiPSCs [1] = experiment: Flow cytometry of protein markers in eiPSC spheroids and cardiac spheroids
Method: (§1) For flow cytometry, the eiPSC spheroids were collected on day 0 and the cardiac spheroids were collected on days 1.5, 2.5, 12.5, 15. The spheroids were dissociated to single cells by 0.25% trypsin for 5 min at 37° C. and then fixed with 75% ethanol at 4° C. overnight. The cells were permeabilized with 0.05% Triton X-100 for 3 min and then rinsed with 1×PBS twice. The cell numbers were adjusted to 1×10^6 cells/tube in 700 μL of saline for each marker. These cells were incubated with primary antibodies including OCT-4 (1:500 dilution, Cell Signaling Technologies), NANOG (1:500 dilution, Cell Signaling Technologies), SSEA-4 (1:500 dilution, Cell Signaling Technologies), BRACHYURY (1:500; Santa Cruz Biotechnology), NKX2.5 (1:500; Santa Cruz Biotechnology), cTnT (1:500 dilution, Cell Signaling Technologies), cTnI (1:500 dilution, Cell Signaling Technologies), α-ACTININ (1:500 dilution; Santa Cruz Biotechnology), MUSASHI-1 (1:500; R&D Systems), and TUJ-1 (1:500; R&D Systems) at 4° C. overnight. Subsequently, the samples were rinsed with 1×PBS thrice before incubation with corresponding secondary antibodies: goat anti-mouse IgG FITC and goat anti-rabbit IgG PE, respectively (1:1000; Invitrogen) for 1 h at RT. The samples were then rinsed with 1×PBS thrice before flow cytometry. The negative controls were the cells incubated with respective primary antibodies as aforementioned (no incubation with a secondary antibody).

human eiPSCs [2] = experiment: 3D cardiac differentiation of eiPSC spheroids: percentage of beating cardiac spheroids and outset beating time; conditions: for beating efficiency of 3D cardiac differentiation: PSCs
Method: Cardiac differentiation of the 3D eiPSC spheroids was conducted by modulating the canonical Wnt signaling pathway with agonists and antagonists sequentially, which has also been used for differentiation of human PSCs into cardiomyocytes under 2D culture. Two Wnt agonists, CHIR99021 (8 μM) and 6-bromoindirubin-3′-oxime (BIO, 2 μM), were supplemented into the culture medium on day 0, to up-regulate the Wnt signaling and induce iPSC differentiation into mesoderm for 1 day. On day 1, two Wnt antagonists, XAV939 (10 μM) and KY02111 (10 μM), were used to suppress the Wnt signaling for inducing cardiac commitment of the mesoderm cells in the following 6 days to obtain cardiac spheroids. Afterward, the cardiac spheroids were cultured in pure cardiac maintenance medium for maturation until day 13.5. […] In other words, the outset beating time (OBT) of the cardiac spheroids was synchronized to be within ˜24 h for the 1 μM RI group. No significant change in the beating percentage from day 7.5 to day 13.5 was observed. In contrast, in the 10 μM RI group, only ˜8% and ˜44% of cardiac spheroids beat on days 6.5 and 13.5, respectively (FIG. 4A, on day 13.5). […] Therefore, the OBT ranges over at least a week, indicating high heterogeneity of the cardiac spheroids in the 10 μM RI group as the beating is a direct and visible indicator of functional maturity of the cardiac spheroids.
To obtain 3D iPSC spheroids, the iPSC colonies under 2D culture at ˜80% confluence were treated with Versene for 2 min, rinsed with PBS, and further detached from the substrate by gentle pipetting. The detached iPSCs were re-suspended in mTeSR1 with Rock inhibitor (Y27632) at 0, 1, 5, or 10 μM. Afterward, the medium was supplemented with 0.35% (v/v) methylcellulose. The cell suspension (12 ml) containing ˜4×10^6 cells was pushed through a cell strainer with 100 μm mesh size. Later, the suspension of iPSC clumps was transferred into a petri dish (diameter: 10 cm) for culture in a humidified incubator at 37° C. and 5% CO2 for 2 days, during which the 2D iPSC clumps grew into 3D iPSC spheroids. Then, the medium was changed to mTeSR1 (supplemented with 0.35% methylcellulose) with no rock inhibitor, to further culture for 2 days before cardiac differentiation. To determine the number of cells per eiPSC spheroid, roughly equal numbers of the spheroids from either the 1 or 10 μM RI group were pooled together and trypsinized to dissociate the cells. The dissociated cells were then resuspended in 1.4 ml of the aforementioned iPSC maintenance medium and the cell number was counted using a hemocytometer. Three independent runs with 282, 260, and 256 spheroids for the 1 μM RI group and 273, 298, and 286 spheroids for the 10 μM RI group were conducted.
The eiPSC spheroids obtained after 4 days of culture on day 0 were induced into mesoderm by up-regulation of the Wnt signaling pathway using 8 μM CHIR99021 and 2 μM GSK inhibitor 6-bromoindirubin-3′-oxime (BIO) in the mesoderm induction medium for 1 day. The mesoderm induction medium was a mixture of DMEM/F12 and α-MEM (v/v, 1:1), containing 2% Knockout Serum Replacement (KOSR), 1 mM L-glutamine, 1% MEM non-essential amino acids (NEAA), and 0.1 mM β-mercaptoethanol. After 1 day, the spheroids were induced for cardiac commitment by down-regulating the Wnt signaling pathway using 10 μM KY02111 and 10 μM XAV939 in the cardiac maintenance medium for 6 days with the medium being changed every other day. The cardiac maintenance medium was a mixture of RPMI1640 and α-MEM (v/v, 1:1) containing 5% fetal bovine serum (FBS). Starting from day 8, the cardiac maintenance medium without KY02111 and XAV939 was used, and it was changed every other day for cardiac maturation. Images and videos of the resultant cardiac spheroids were taken using the Zeiss LSM 710 microscope before medium change.

IMR90-1 human iPSCs = experiment: Flow cytometry of IMR90-1 cardiac spheroids; conditions: day 12.5
Method: as §1

C[C@@H](N)[C@H]1CC[C@H](C(=O)Nc2ccncc2)CC1.Cl.Cl (relative stereo) [RI, (+)-(R)-trans-4-(1-aminoethyl)-N-(4-pyridyl) cyclo-hexanecarboxamide dihydrochloride]
expression of pluripotency markers OCT-4, NANOG, SSEA-4 (human eiPSCs [1]; 1 μM RI group versus 10 μM RI group, day 0): significantly higher | expression of neural-specific protein markers MUSASHI-1 and TUJ-1 (human eiPSCs [1]; 1 μM RI, cardiac spheroids day 12.5, dihydrochloride): negligible; also recorded: negative | BRACHYURY-positive cells (human eiPSCs [1]; 1 μM RI, day 1.5, after CHIR99021 and BIO for 1 day): ~100% | NKX2.5 expression (human eiPSCs [1]; 1 μM RI, day 2.5, after XAV939 and KY02111): ~100% | cTnI-positive cells (human eiPSCs [1]; 1 μM RI, day 12.5): 93.9% | cells positive for sarcomere-related proteins including α-ACTININ and cTnI (human eiPSCs [1]; 1 μM RI, day 12.5): more than 90% | α-ACTININ-positive cells (human eiPSCs [1]; 1 μM RI, day 12.5): 95% | expression of ectoderm marker NESTIN (human eiPSCs [1]; 1 μM RI, eiPSC spheroids day 0): negligible | expression of ectoderm marker NESTIN (human eiPSCs [1]; 10 μM RI, eiPSC spheroids after four-day culture (day 0)): 73.1% | percentage of cTnT-positive cells and mean intensity of cTnT fluorescence staining (human eiPSCs [1]; RI from 1 to 5 to 10 μM, cardiac spheroids day 15, dihydrochloride): decreased with the increase of the RI concentration; also recorded: decreases as the RI treatment concentration increases | beating efficiency of 3D cardiac differentiation (human eiPSCs [2]; 1 μM RI, in about 7 days): more than 95% | percentage of beating cardiac spheroids (human eiPSCs [2]; 1 μM RI, day 6.5): ~48% | percentage of beating cardiac spheroids (human eiPSCs [2]; 5 μM RI, day 9.5): ~61% | beating efficiency of 3D cardiac differentiation (human eiPSCs [2]; 10 μM RI, in 14 days): less than 50% | outset beating time (OBT) (human eiPSCs [2]; 10 μM RI, day 6-6.5 to day 13.5): more than 7 days | percentage of beating cardiac spheroids (human eiPSCs [2]; 10 μM RI, day 6.5): ~8% | percentage of beating cardiac spheroids (human eiPSCs [2]; 10 μM RI, day 13.5, dihydrochloride): ~44% and 44.3% | cells positive for MUSASHI (IMR90-1 human iPSCs; 1 μM RI): negligible | cells positive for cTnT (IMR90-1 human iPSCs; 1 μM RI): 91% | cells positive for MUSASHI (IMR90-1 human iPSCs; 10 μM RI): ~20% | cells positive for cTnT (IMR90-1 human iPSCs; 10 μM RI): 32%
